Test results: patent EP0052437A1, “Antibacterial compounds, processes for their preparation and compositions containing them” (BEECHAM GROUP PLC, priority 1980, dated 1982)
In brackets after ≈: the same amount, converted by molar mass.

What was measured:
Type in all cases: cell-based
M. gallisepticum S6 = assay: Anti-mycoplasmal in vitro MIC; conditions: Mycoplasmoides gallisepticum, 144 h, Friis broth solidified with 0.9% agarose, 6 days incubation at 37°C
[1] = test system: M. suipneumoniae NCTC 10110; assay: Anti-mycoplasmal in vitro MIC; conditions: Mesomycoplasma hyopneumoniae, NCTC10110, 144 h, Friis broth solidified with 0.9% agarose, 6 days incubation at 37°C
S. dublin S7 = assay: Veterinary bacteria MIC; conditions: Salmonella enterica, Diagnostic Sensitivity Test Agar, 18 hours at 37°C
Procedure: (§1) The values were determined using a two fold serial dilutions.in Diagnostic Sensitivity Test Agar with an inoculum of 10^4 organisms and incubation for 18 hours at 37°C.

Past. multocida PA2 = assay: Veterinary bacteria MIC; conditions: Pasteurella multocida, Diagnostic Sensitivity Test Agar, 18 hours at 37°C
Procedure: as §1

Strep. uberis SPU1 = assay: Veterinary bacteria MIC; conditions: Streptococcus uberis, Diagnostic Sensitivity Test Agar, 18 hours at 37°C
Procedure: as §1

Past. multocida PA1 = assay: Veterinary bacteria MIC; conditions: Pasteurella multocida, Diagnostic Sensitivity Test Agar, 18 hours at 37°C
Procedure: as §1

E. Coli NCTC 10418 [2] = assay: Veterinary bacteria MIC; conditions: Escherichia coli, NCTC10418, Diagnostic Sensitivity Test Agar, 18 hours at 37°C
Procedure: as §1

Past. haemolytica PA5 = assay: Veterinary bacteria MIC; conditions: Mannheimia haemolytica, Diagnostic Sensitivity Test Agar, 18 hours at 37°C
Procedure: as §1

[3] = test system: Strep. suis (group D) SPS11; assay: Veterinary bacteria MIC; conditions: Streptococcus suis, Diagnostic Sensitivity Test Agar, 18 hours at 37°C
Procedure: as §1

Strep. dysgalactiae SPD1 = assay: Veterinary bacteria MIC; conditions: Streptococcus dysgalactiae, Diagnostic Sensitivity Test Agar, 18 hours at 37°C
Procedure: as §1

Bord. bronchiseptica BO9 = assay: Veterinary bacteria MIC; conditions: Bordetella bronchiseptica, Diagnostic Sensitivity Test Agar, 18 hours at 37°C
Procedure: as §1

Strep. agalactiae SPA1 = assay: Veterinary bacteria MIC; conditions: Streptococcus agalactiae, Diagnostic Sensitivity Test Agar, 18 hours at 37°C
Procedure: as §1

Staph. aureus B4 = assay: Veterinary bacteria MIC; conditions: Staphylococcus aureus, Diagnostic Sensitivity Test Agar, 18 hours at 37°C
Procedure: as §1

[4] = test system: Erysipelothrix rhusiopathiae NCTC 8163; assay: Veterinary bacteria MIC; conditions: NCTC8163, Diagnostic Sensitivity Test Agar, 18 hours at 37°C
Procedure: as §1

Staph. aureus 152 = assay: Veterinary bacteria MIC; conditions: Staphylococcus aureus, Diagnostic Sensitivity Test Agar, 18 hours at 37°C
Procedure: as §1

[5] = test system: Corynebacterium pyogenes CY1; assay: Veterinary bacteria MIC; conditions: Trueperella pyogenes, Diagnostic Sensitivity Test Agar, 18 hours at 37°C
Procedure: as §1

E. Coli E1 = assay: Veterinary bacteria MIC; conditions: Escherichia coli, Diagnostic Sensitivity Test Agar, 18 hours at 37°C
Procedure: as §1

S. typhimurium S18 = assay: Veterinary bacteria MIC; conditions: Salmonella enterica, Diagnostic Sensitivity Test Agar, 18 hours at 37°C
Procedure: as §1

Bord. bronchiseptica BO8 = assay: Veterinary bacteria MIC; conditions: Bordetella bronchiseptica, Diagnostic Sensitivity Test Agar, 18 hours at 37°C
Procedure: as §1

M. suipneumoniae NB12 = assay: Anti-mycoplasmal in vitro MIC; conditions: Mesomycoplasma hyopneumoniae, 144 h, Friis broth solidified with 0.9% agarose, 6 days incubation at 37°C
Staph. aureus Russell = assay: Human bacteria MIC; conditions: Staphylococcus aureus, nutrient agar with 5% chocolated horse blood, 18 hours at 37°C
Procedure: (§2) The values were determined by serial dilutions in nutrient agar with 5% chocolated horse blood after incubations for 18 hours at 37 °C.

Strep. 641848-C = assay: Human bacteria MIC; conditions: nutrient agar with 5% chocolated horse blood, 18 hours at 37°C
Procedure: as §2

K. aerogenes A = assay: Human bacteria MIC; conditions: Klebsiella aerogenes, nutrient agar with 5% chocolated horse blood, 18 hours at 37°C
Procedure: as §2

E. Coli NCTC 10418 [6] = assay: Human bacteria MIC; conditions: Escherichia coli, NCTC10418, nutrient agar with 5% chocolated horse blood, 18 hours at 37°C
Procedure: as §2

[7] = test system: Ps. aeruginosa NCTC 10662; assay: Human bacteria MIC; conditions: Pseudomonas aeruginosa, NCTC10662, nutrient agar with 5% chocolated horse blood, 18 hours at 37°C
Procedure: as §2

E. coli ESS = assay: Human bacteria MIC; conditions: Escherichia coli, nutrient agar with 5% chocolated horse blood, 18 hours at 37°C
Procedure: as §2

Staph. aureus Oxford = assay: Human bacteria MIC; conditions: Staphylococcus aureus, nutrient agar with 5% chocolated horse blood, 18 hours at 37°C
Procedure: as §2

Bacillus subtilis 6633 = assay: Human bacteria MIC; conditions: nutrient agar with 5% chocolated horse blood, 18 hours at 37°C
Procedure: as §2

[8] = test system: Corynebacterium xerosis 9755; assay: Human bacteria MIC; conditions: nutrient agar with 5% chocolated horse blood, 18 hours at 37°C
Procedure: as §2

Sarcina lutea 8340 = assay: Human bacteria MIC; conditions: Micrococcus luteus, nutrient agar with 5% chocolated horse blood, 18 hours at 37°C
Procedure: as §2

Strep. faecalis I = assay: Human bacteria MIC; conditions: Enterococcus faecalis, nutrient agar with 5% chocolated horse blood, 18 hours at 37°C
Procedure: as §2

Staph. aureus W2827 = assay: Human bacteria MIC; conditions: Staphylococcus aureus, nutrient agar with 5% chocolated horse blood, 18 hours at 37°C
Procedure: as §2

[9] = test system: Neisseria catarrhalis 1502; assay: Human bacteria MIC; conditions: nutrient agar with 5% chocolated horse blood, 18 hours at 37°C
Procedure: as §2

[10] = test system: Pasteurella multocida 1633; assay: Human bacteria MIC; conditions: nutrient agar with 5% chocolated horse blood, 18 hours at 37°C
Procedure: as §2

P. mirabilis 889 = assay: Human bacteria MIC; conditions: Proteus mirabilis, nutrient agar with 5% chocolated horse blood, 18 hours at 37°C
Procedure: as §2

M. pneumoniae ATCC 15492 = assay: Anti-mycoplasmal in vitro MIC; conditions: Mycoplasmoides pneumoniae, ATCC15492, 144 h, Friis broth solidified with 0.9% agarose, 6 days incubation at 37°C
M. dispar NCTC 10125 = assay: Anti-mycoplasmal in vitro MIC; conditions: 144 h, Friis broth solidified with 0.9% agarose, 6 days incubation at 37°C

SMILES | MIC (M. gallisepticum S6) [µg/mL] | MIC [1] [µg/mL] | MIC (S. dublin S7) [µg/mL] | MIC (Past. multocida PA2) [µg/mL] | MIC (Strep. uberis SPU1) [µg/mL] | MIC (Past. multocida PA1) [µg/mL] | MIC (E. Coli NCTC 10418 [2]) [µg/mL] | MIC (Past. haemolytica PA5) [µg/mL] | MIC [3] [µg/mL] | MIC (Strep. dysgalactiae SPD1) [µg/mL] | MIC (Bord. bronchiseptica BO9) [µg/mL] | MIC (Strep. agalactiae SPA1) [µg/mL] | MIC (Staph. aureus B4) [µg/mL] | MIC [4] [µg/mL] | MIC (Staph. aureus 152) [µg/mL] | MIC [5] [µg/mL] | MIC (E. Coli E1) [µg/mL] | MIC (S. typhimurium S18) [µg/mL] | MIC (Bord. bronchiseptica BO8) [µg/mL] | MIC (M. suipneumoniae NB12) [µg/mL] | also measured
C/C(=C\C(=O)OCc1ccccc1C#N)CC1OCC(CC2OC2C(C)C(C)O)C(O)C1O (centres unmarked) [Example 1, o-Cyanobenzyl monate A] | 2.5 (≈ 5.44 µM) | 1 (≈ 2.18 µM) | > 80 | 0.156 (≈ 0.339 µM) | 0.156 (≈ 0.339 µM) | 1.25 (≈ 2.72 µM) | > 80 | 10 (≈ 21.8 µM) | 10 (≈ 21.8 µM) | 0.312 (≈ 0.679 µM) | 10 (≈ 21.8 µM) | 2.5 (≈ 5.44 µM) | 1.25 (≈ 2.72 µM) | 80 (≈ 174 µM) | 1.25 (≈ 2.72 µM) | > 80 | > 80 | > 80 | > 80 | 0.5 (≈ 1.09 µM) | MIC (Staph. aureus Russell): 1 µg/mL (≈ 2.18 µM); MIC (Strep. 641848-C): 1 µg/mL (≈ 2.18 µM); MIC (K. aerogenes A): > 100 µg/mL; MIC (E. Coli NCTC 10418 [6]): > 100 µg/mL; MIC [7]: > 100 µg/mL; MIC (E. coli ESS): 1 µg/mL (≈ 2.18 µM); MIC (Staph. aureus Oxford): 1 µg/mL (≈ 2.18 µM); MIC (Bacillus subtilis 6633): 2.5 µg/mL (≈ 5.44 µM); MIC [8]: > 100 µg/mL; MIC (Sarcina lutea 8340): > 100 µg/mL; MIC (Strep. faecalis I): > 100 µg/mL; MIC (Staph. aureus W2827): 2.5 µg/mL (≈ 5.44 µM); MIC [9]: 0.5 µg/mL (≈ 1.09 µM); MIC [10]: 1 µg/mL (≈ 2.18 µM); MIC (P. mirabilis 889): > 100 µg/mL; MIC (M. pneumoniae ATCC 15492): 2.5 µg/mL (≈ 5.44 µM); MIC (M. dispar NCTC 10125): 0.25 µg/mL (≈ 0.544 µM)
C/C(=C\C(=O)OCc1cc(C#N)cc(C#N)c1)CC1OCC(CC2OC2C(C)C(C)O)C(O)C1O (centres unmarked) [Example 6, 3,5-Dicyanobenzyl monate A] | 2.5 (≈ 5.16 µM) | 0.1 (≈ 0.206 µM) | > 80 | 0.625 (≈ 1.29 µM) | 0.312 (≈ 0.644 µM) | 5 (≈ 10.3 µM) | > 80 | 10 (≈ 20.6 µM) | 40 (≈ 82.6 µM) | 0.625 (≈ 1.29 µM) | 40 (≈ 82.6 µM) | 0.625 (≈ 1.29 µM) | 5 (≈ 10.3 µM) | 80 (≈ 165 µM) | 5 (≈ 10.3 µM) | > 80 | > 80 | > 80 | 80 (≈ 165 µM) | 0.1 (≈ 0.206 µM) | MIC (Staph. aureus Russell): 5 µg/mL (≈ 10.3 µM); MIC (Strep. 641848-C): 1 µg/mL (≈ 2.06 µM); MIC (K. aerogenes A): > 100 µg/mL; MIC (E. Coli NCTC 10418 [6]): > 100 µg/mL; MIC [7]: > 100 µg/mL; MIC (E. coli ESS): 5 µg/mL (≈ 10.3 µM); MIC (Staph. aureus Oxford): 2.5 µg/mL (≈ 5.16 µM); MIC (Bacillus subtilis 6633): 2.5 µg/mL (≈ 5.16 µM); MIC [8]: > 100 µg/mL; MIC (Sarcina lutea 8340): > 100 µg/mL; MIC (Strep. faecalis I): 100 µg/mL (≈ 206 µM); MIC (Staph. aureus W2827): 5 µg/mL (≈ 10.3 µM); MIC [9]: 0.5 µg/mL (≈ 1.03 µM); MIC [10]: 2.5 µg/mL (≈ 5.16 µM); MIC (P. mirabilis 889): 100 µg/mL (≈ 206 µM); MIC (M. pneumoniae ATCC 15492): 2.5 µg/mL (≈ 5.16 µM); MIC (M. dispar NCTC 10125): 0.05 µg/mL (≈ 0.103 µM)
